In US20200054671A1, “TREATMENT OF ANXIETY DISORDER AND AUGMENTATION OF ANTI-ANXIETY INTERVENTIONS BY ADMINISTRATION OF NOBLE GAS CONTAINING MIXTURES” (NOBILIS THERAPEUTICS, INC., priority 2016, published 2020):

Key:
[1] = test system: patients with panic disorder; experiment: Clinical Global Impression Scale, improvement subscale (CGI-I); assay type: in vivo, human
Method: (§1) This investigator-initiated study was performed under a prospective clinical trial protocol approved by the Institute of Mental Health and Addictology, which is accredited by the Ministry of Health of the Russian Federation to conduct clinical trials (#57689). Study conduct was in compliance with all ethical standards and good clinical practice. Ninety outpatients with a diagnosis of “panic disorder» (F41.0) according to ICD-10 were enrolled through the Institute of Mental Health and Addictology. Five patients dropped out of the study due to minor side effects, predominantly lightheadedness and headaches, and 4 patients dropped out of the study for unspecified reasons. As the intention to treat analysis was not utilized due to the open label design of the study, 81 patients with PD (49 women and 32 men), mean age was 35.2 years (range […]) were studied. Patients were randomized into 2 groups: with “pure” PD (group 1) and “comorbid” PD, when it was co-diagnosed with other mental illnesses (group 2). All patients with isolated PD (Group 1, n=42) received monotherapy with xenon at the aforementioned schedule, while the majority of patients (94.9%) with PD and comorbid conditions, which were predominantly depression (group 2, n=39), in addition to xenon administration continued treatment for comorbid psychiatric disorders, which mainly consisted of antidepressants (SSRIs and SNRIs). In these patients, the reason for xenon treatment was the increase in the frequency and severity of panic attacks despite ongoing treatment with stable pharmacotherapy of at least 3 to 6 months' duration.
(§2) Administration of xenon was performed through inhalation of xenon-oxygen mixtures that were escalated from 15%/85% to 30%/70% with titration increments of 5% per session. Each patient in the study underwent between 6 and 7 treatments with xenon-oxygen mixture. The first three sessions were carried out daily and from session 4 onward—every other day. The selected dosing regime and the composition of the gas mixtures were based on the historical evidence of safety of subanesthetic use of xenon in imaging.
(§3) Medical grade xenon (“medksenon»®, 99.9999%, manufacturer: Atommedcenter, Moscow, Russia) and medical grade oxygen in separate containers were admixed. Mixing and administration of gases in preset concentration and volume was accomplished with the use of the medical device MAGi-AMTS1, which enables the operator to adjust the concentration of xenon in the gas mixture, and which contains the electronic flow meter with a software module that allows for such adjustments. Administration of xenon-oxygen mixture to the patient was carried out via a face mask. Patients were asked to slowly inhale, holding breath for 5 to 10 seconds; exhale into the loop and after 35-40 seconds exhale outside the contour and breath in the new portion of gas mixture. Xenon inhalation lasted from 2.5 to 4 minutes, and the xenon consumption was capped at 3.0 liters per procedure. The patients were assessed subjectively by the provider, while the vital signs (pulse, blood pressure, oxygen saturation) were continuously monitored.
(§4) Patients were evaluated after each xenon inhalation and at 30 and 180 days after completion of treatment. To this end, we employed clinical psychopathological and clinical catamnestic methods, and psychometric scales that are widely used internationally to assess the treatment of mental disorders. Scale Assessment, Zung Self-Rating Anxiety Scale (SAS) was performed prior to starting therapy (V1), and at 1 and 6 months after treatment. According to this scale, SAS index of less than 45 points corresponds to the normal value, 45-59—to mild-to-moderate degree of anxiety, 60-74—to high degree of anxiety, more than 75—to an extremely high-level of anxiety. […]

[2] = test system: patients with panic disorder; experiment: Clinical Global Impression Scale, severity of the disease subscale (CGI-S); assay type: in vivo, human
Method: as §1, §2, §3, §4

NMDA receptor = NMDA receptor (Homo sapiens, UniProt Q05586); conditions: glycine site of the NMDA receptor; cited from earlier work
[3] = «Pure PD» (n = 42), total given 39

## [Xe] [xenon]
[1]; Total (n = 81)
  CGI-I, V2: Marked deterioration, share of patients: 1.2%
  CGI-I, V2: Marked improvement, share of patients: 12.3%
  CGI-I, V2: Minimal deterioration, share of patients: 1.2%
  CGI-I, V2: Minimal improvement, share of patients: 54.3%
  CGI-I, V2: No changes, share of patients: 30.9%
  CGI-I, V3: Marked improvement, share of patients: 25.9%
  CGI-I, V3: Minimal improvement, share of patients: 61.7%
  CGI-I, V3: No changes, share of patients: 12.3%
  CGI-I, V4: Marked improvement, share of patients: 54.3%
  CGI-I, V4: Minimal improvement, share of patients: 40.7%
  CGI-I, V4: No changes, share of patients: 4.9%
  CGI-I, V5: Marked improvement, share of patients: 79.0%
  CGI-I, V5: Minimal improvement, share of patients: 18.5%
  CGI-I, V5: Very marked improvement, share of patients: 2.5%
  CGI-I, V6: Marked improvement, share of patients: 66.7%
  CGI-I, V6: Very marked improvement, share of patients: 33.3%
[1]; «Comorbid PD» (n = 39)
  CGI-I, V2: Marked deterioration, share of patients: .0%
  CGI-I, V2: Marked improvement, share of patients: 12.8%
  CGI-I, V2: Minimal deterioration, share of patients: .0%
  CGI-I, V2: Minimal improvement, share of patients: 61.5%
  CGI-I, V2: No changes, share of patients: 25.6%
  CGI-I, V3: Minimal improvement, share of patients: 69.2%
  CGI-I, V3: No changes, share of patients: 20.5%
  CGI-I, V4: Marked improvement, share of patients: 25.6%
  CGI-I, V4: Minimal improvement, share of patients: 64.1%
  CGI-I, V4: No changes, share of patients: 10.3%
  CGI-I, V5: Marked improvement, share of patients: 61.5%
  CGI-I, V5: Minimal improvement, share of patients: 38.5%
  CGI-I, V5: Very marked improvement, share of patients: .0%
  CGI-I, V6: Marked improvement, share of patients: 87.2%
[1]; «Comorbid PD» (n = 39), after 6 treatments
  CGI-I, V6: Very marked improvement, share of patients: 12.8%
[1]; «Comorbid PD» (n = 39), after the third treatment
  CGI-I, V3: Marked improvement, share of patients: 10.3%
[1]; «Pure PD» (n = 42)
  CGI-I, V2: Marked deterioration, share of patients: 2.4%
  CGI-I, V2: Marked improvement, share of patients: 11.9%
  CGI-I, V2: Minimal deterioration, share of patients: 2.4%
  CGI-I, V2: Minimal improvement, share of patients: 47.6%
  CGI-I, V2: No changes, share of patients: 35.7%
  CGI-I, V3: Minimal improvement, share of patients: 54.8%
  CGI-I, V3: No changes, share of patients: 4.8%
  CGI-I, V4: Marked improvement, share of patients: 81.0%
  CGI-I, V4: Minimal improvement, share of patients: 19.0%
  CGI-I, V4: No changes, share of patients: .0%
  CGI-I, V5: Marked improvement, share of patients: 95.2%
  CGI-I, V5: Minimal improvement, share of patients: .0%
  CGI-I, V5: Very marked improvement, share of patients: 4.8%
  CGI-I, V6: Marked improvement, share of patients: 47.6%
[1]; «Pure PD» (n = 42), after 6 treatments
  CGI-I, V6: Very marked improvement, share of patients: 52.4%
[1]; «Pure PD» (n = 42), after the third treatment
  CGI-I, V3: Marked improvement, share of patients: 40.5%
[2]; Comorbid PD (n = 39), total 42
  CGI-S, V2: Moderately expressed disease, share of patients: 2.4%
  CGI-S, V2: Serious disease, share of patients: 4.8%
  CGI-S, V2: Significantly expressed disease, share of patients: 92.9%
  CGI-S, V3: Significantly expressed disease, share of patients: 88.1%
  CGI-S, V4: Moderately expressed disease, share of patients: 52.4%
  CGI-S, V4: Significantly expressed disease, share of patients: .0%
  CGI-S, V4: Weakly expressed disease, share of patients: 47.6%
  CGI-S, V5: Borderline state, share of patients: 14.3%
  CGI-S, V5: Moderately expressed disease, share of patients: .0%
  CGI-S, V5: Significantly expressed disease, share of patients: .0%
  CGI-S, V5: Weakly expressed disease, share of patients: 85.7%
  CGI-S, V6: Normal state, share of patients: 11.9%
  CGI-S, V6: Weakly expressed disease, share of patients: .0%
[2]; Comorbid PD (n = 39), total 42, after the third procedure
  CGI-S, V3: Moderately expressed disease, share of patients: 11.9%
[2]; Comorbid PD (n = 39), total 42, upon completion of xenon treatments
  CGI-S, V6: Borderline state, share of patients: 88.1%
[2]; Total (n = 81)
  CGI-S, V2: Moderately expressed disease, share of patients: 24.7%
  CGI-S, V2: Serious disease, share of patients: 2.5%
  CGI-S, V2: Significantly expressed disease, share of patients: 72.8%
  CGI-S, V3: Moderately expressed disease, share of patients: 29.6%
  CGI-S, V3: Significantly expressed disease, share of patients: 70.4%
  CGI-S, V4: Moderately expressed disease, share of patients: 51.9%
  CGI-S, V4: Significantly expressed disease, share of patients: 23.5%
  CGI-S, V4: Weakly expressed disease, share of patients: 24.7%
  CGI-S, V5: Borderline state, share of patients: 7.4%
  CGI-S, V5: Moderately expressed disease, share of patients: 45.7%
  CGI-S, V5: Significantly expressed disease, share of patients: 1.2%
  CGI-S, V5: Weakly expressed disease, share of patients: 45.7%
  CGI-S, V6: Borderline state, share of patients: 85.2%
  CGI-S, V6: Normal state, share of patients: 6.2%
  CGI-S, V6: Weakly expressed disease, share of patients: 8.6%
[2]; [3]
  CGI-S, V2: Moderately expressed disease, share of patients: 48.7%
  CGI-S, V2: Serious disease, share of patients: .0%
  CGI-S, V2: Significantly expressed disease, share of patients: 51.3%
  CGI-S, V3: Significantly expressed disease, share of patients: 51.3%
  CGI-S, V4: Moderately expressed disease, share of patients: 51.3%
  CGI-S, V4: Significantly expressed disease, share of patients: 48.7%
  CGI-S, V4: Weakly expressed disease, share of patients: .0%
  CGI-S, V5: Borderline state, share of patients: .0%
  CGI-S, V5: Moderately expressed disease, share of patients: 94.9%
  CGI-S, V5: Significantly expressed disease, share of patients: 2.6%
  CGI-S, V5: Weakly expressed disease, share of patients: 2.6%
  CGI-S, V6: Normal state, share of patients: .0%
  CGI-S, V6: Weakly expressed disease, share of patients: 17.9%
[2]; «Pure PD» (n = 42), total given 39, after the third procedure
  CGI-S, V3: Moderately expressed disease, share of patients: 48.7%
[2]; «Pure PD» (n = 42), total given 39, upon completion of xenon treatments
  CGI-S, V6: Borderline state, share of patients: 82.1%
NMDA receptor
  mechanism of inhibition of NMDA receptor activity: competitive inhibition of the co-agonist glycine
